Experimental data: US20140249141A1, “1,4-DIAZABICYCLO[3.2.2]NONANES AS NEURONAL NICOTINIC ACETYLCHOLINE RECEPTOR LIGANDS” (Targacept, Inc., priority 2011, published 2014)
“Also recorded” adds a separate entry of the source. Read-outs that look alike come from different tables or passages of the source.

What was measured:
[1] = target: T1, human α7 (Homo sapiens, UniProt P36544); experiment: Competition binding to human α7 nicotinic receptor in membrane preparations
T1 construct: expressed in transfected cells; host or cells: HEK cells expressing human α7 and RIC3, obtained from J. Lindstrom, U. Pennsylvania; membranes prepared from the cells
Experimental: (§1) SH-EP1/human α4β2 (Eaton et al., 2003), SH-EP1/human α4β4 (Gentry et al., 2003), SH-EP1/α6β3β4α5 (Grinevich et al., 2005), TE671/RD and SH-SY5Y cell lines (obtained from Dr. Ron Lukas, Barrow Neurological Institute, St. Joseph's Hospital and Medical Center, Phoenix, Ariz.) were maintained in proliferative growth phase in Dulbecco's modified Eagle's medium (Gibco/BRL) with 10% horse serum (Gibco BRL), 5% fetal bovine serum (HyClone, Logan Utah), 1 mM sodium pyruvate, 4 mM L-glutamine. For maintenance of stable transfectants, the α4β2 and α4β4 cell media was supplemented with 0.25 mg/mL zeocin and 0.13 mg/mL hygromycin B. Selection was maintained for the α6β3β4α5 cells with 0.25 mg/mL of zeocin, 0.13 mg/mL of hygromycin B, 0.4 mg/mL of geneticin, and 0.2 mg/mL of blasticidin. HEK/human α7/RIC3 cells (obtained from J. Lindstrom, U. Pennsylvania, Philadelphia, Pa.) were maintained in proliferative growth phase in Dulbecco's modified Eagle's medium (Gibco/BRL) with 10% fetal bovine serum (HyClone, Logan Utah), 1 mM sodium pyruvate, 4 mM L-glutamine, 0.4 mg/mL geneticin; 0.2 mg/ml hygromycin B.
(§2) Cells were harvested in ice-cold PBS, pH 7.4, then homogenized with a polytron (Brinkmann Instruments, Westbury, N.Y.). Homongenates were centrifuged at 40,000 g for 20 minutes (4° C.). The pellet was resuspended in PBS and protein concentration determined using the Pierce BCA Protein Assay kit (Pierce Biotechnology, Rockford, Ill.).
(§3) Binding to nicotinic receptors was assayed on membranes using standard methods adapted from published procedures (Lippiello and Fernandes, 1986; Davies et al., 1999). In brief, membranes were reconstituted from frozen stocks (approximately 0.2 mg protein) and incubated for 2 h on ice in […] assay buffer (PBS) in the presence of competitor compound (0.001 nM to 100 mM) and radioligand. […] Filters were washed 3 times and the radioactivity retained was determined by liquid scintillation counting.
(§4) Binding data were expressed as percent total control binding. […] Ki was calculated using the Cheng-Prusoff equation (Cheng and Prusoff, 1973).

[2] = target: T2, human α4β2 (Homo sapiens, UniProt P17787+P43681); experiment: Competition binding to human α4β2 nicotinic receptor in membrane preparations
T2 construct: expressed in transfected cells; membranes prepared from the cells
Experimental: as §1, §2, §3, §4

[3] = tested on: ova-challenged mice; experiment: Ovalbumin-induced lung inflammation (allergic asthma) model, airway hyperresponsiveness; type: in vivo; conditions: FIGS. 1 and 2, compared to control
Excerpt: Ovalbumin-induced allergic asthma is a widely used model to reproduce the airway eosinophilia, pulmonary inflammation and elevated IgE levels found during asthma. Studies can be run with or without airway hyper-responsiveness (AHR) measurements. Allergic asthma is typically triggered by allergens in the air such as pollen, mold, dust mites, etc., and is commonly characterized by reversible […], elevated levels of IgE causing mast cell activation, chronic airway inflammation, and airway hyper-responsiveness (AHR). The immunological processes involved are characterized by proliferation and activation of Th2 lymphocytes, setting off an allergic cascade.
FIGS. 1 and 2 illustrate Compound A and Control compounds in the ovalbumin-induced lung inflammation model. For detailed procedures, see Hamelmann E, Schwarze J, Takeda K, Oshiba A, Larsen G L, Irvin C G, and Gelfand E W. Noninvasive measurement of airway responsiveness in allergic mice using barometric plethysmography. Am. J. Respir. Crit. Care Med 156: 766-775, 1997, herein incorporated by reference.

[4] = SH-EP1/human α4β2 cell membranes, [3H]-nicotine, Cheng-Prusoff, read-out: Human α4β2 Ki

Compound | Ki ([1]; HEK/human α7/RIC3 cell membranes, [3H]-epibatidine, Cheng-Prusoff, read-out: Human α7 Ki) [nM] | Ki [2, 4] [nM] | Ki [1] [nM] | Ki [2] [nM] | methacholine (MCh)-induced bronchoconstriction (Penh, index of airway resistance) [3]
O=c1cc(N2CCN3CCC2CC3)nc2cc(-c3ccccc3)on12 | 280 | 1200 |  |  | 
O=c1cc(N2CCN3CCC2CC3)nc2c3ccccc3on12 |  |  | 55 | 1200 | 
Cc1cc2nc(N3CCN4CCC3CC4)cc(=O)n2o1 [Compound A, 5-(1,4-diazabicyclo[3.2.2]nonan-4-yl)-2-methyl-7H-isoxazolo[2,3-a]pyrimidin-7-one] |  |  |  |  | statistically significant results; also recorded: reduces methacholine (MCh)-induced bronchoconstriction
Cc1cc2nc(N3CCN4CCC3CC4)cc(=O)n2o1 [drawing 5] |  | 3200 | 42 |  | 
